Numbering of substitutions follows the chain as printed.

By EC50 is commonly meant the concentration at which the effect is half-maximal. High values mean weaker potency, low ones greater potency. As a reminder, the Emax is the greatest response seen or fitted, relative to the assay's reference.

Assay type in all cases: cell-based
One assay concerns the target T1, GPR139 L87A2x64 (Homo sapiens, UniProt Q6DWJ6, L87A).
T1 construct: mGluR5 signal peptide (N); expressed in transfected cells; host or cells: HEK293
T1 sequence (Q6DWJ6 2-353 L87A limits assumed): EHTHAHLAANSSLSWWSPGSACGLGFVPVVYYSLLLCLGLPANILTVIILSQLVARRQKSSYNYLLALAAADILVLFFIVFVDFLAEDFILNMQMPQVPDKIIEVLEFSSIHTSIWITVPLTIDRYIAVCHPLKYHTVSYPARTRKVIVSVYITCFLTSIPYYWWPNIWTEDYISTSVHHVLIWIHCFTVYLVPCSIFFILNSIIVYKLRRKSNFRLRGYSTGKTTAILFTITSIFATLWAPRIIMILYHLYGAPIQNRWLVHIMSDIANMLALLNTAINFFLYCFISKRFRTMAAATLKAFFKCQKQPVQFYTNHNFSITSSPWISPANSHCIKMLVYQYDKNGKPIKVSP
The experiment in a line: Fluo-4 Ca2+-assay, GPR139 mutant L87A. The source says:
(§1) To study the influence of specific amino acids in the predicted binding pocket on receptor function, the desired mutations were introduced into an N-terminally c-myc-tagged wild type human GPR139 (NM_001002911.3) in the pEGFP-N1 vector (BD Biosciences)[32], [33]. As previously described, these plasmids carry the signal peptide of mGluR5 to promote cell surface expression followed by a c-myc epitope to enable detection of total and surface expression by ELISA, followed by an engineered MluI and NotI site for easy insertion of the receptor of interest. Furthermore, the start-codon in the GPR139 sequence was deleted to ensure c-myc-tagging. Mutagenesis was designed in Serial Cloner 2.6 (© Franck Perez [SerialBasics]) and carried out by GenScript (USA). All mutated residues are illustrated in Supplementary Fig. 1b. An untagged GPR139(WT) in pEGFP-N1 was also generated to ensure that the c-myc-tag had no influence on GPR139(WT) function.
All GPR139 mutants were transfected into HEK293 cells. The HEK293 cells were grown in Dulbecco’s modified Eagle’s medium (DMEM) (Gibco, 41965) supplemented with 10% dialyzed fetal bovine serum (Gibco, 26400, United States origin), 100 units/mL penicillin and 100 μg/mL streptomycin (Gibco, 15140). HEK293 cells were reverse transfected using Lipofectamine2000 (Invitrogen). […]
(§2) The Ca^2+ measurements were preformed using the Fluo-4 NW Calcium Assay Kit (Invitrogen, Molecular Probes, F36206) as previously described. […] Intracellular calcium changes were recorded as indicated on either a NOVOstar (BMG Labtech) at 37 °C with an excitation filter of 485 nm and an emission filters 520 nm or a FlexStation 3 Benchtop Multi-Mode Microplate Reader (Molecular Devices) at 37 °C with an excitation wavelength of 485 nm and emission of 525 nm.
(§3) All pharmacological data have been analyzed by using Prism 6.0 (GraphPad Software Inc., San Diego). […] Changes in potency (pEC50) and span of myc-GPR139(WT) in comparison to untagged GPR139(WT) was statistically analyzed with a paired t-test and significance was accepted at p < 0.05. […]

Another assay has as its target T2, GPR139 L87F2x64 (Homo sapiens, UniProt Q6DWJ6, L87F).
T2 construct: mGluR5 signal peptide (N); expressed in transfected cells; host or cells: HEK293
T2 sequence (Q6DWJ6 2-353 L87F limits assumed): T1 sequence (Q6DWJ6 2-353 L87A limits assumed) with A86F
The experiment in a line: Fluo-4 Ca2+-assay, GPR139 mutant L87F.
Description: as §1, with “Mutagenesis was designed in Serial Cloner 2.6 (© Franck Perez [SerialBasics]) and carried out by GenScript (USA). All mutated residues are illustrated in Supplementary Fig. 1b. An untagged GPR139(WT) in pEGFP-N1 was also generated to ensure that the c-myc-tag had no influence on GPR139(WT) function.” left out
as §2, §3

Another assay has as its target T3, GPR139 H264A7x31 (Homo sapiens, UniProt Q6DWJ6, H264A).
T3 construct: mGluR5 signal peptide (N); expressed in transfected cells; host or cells: HEK293
T3 sequence (Q6DWJ6 2-353 H264A limits assumed): T1 sequence (Q6DWJ6 2-353 L87A limits assumed) with A86L, H263A
The experiment in a line: Fluo-4 Ca2+-assay, GPR139 mutant H264A.
Description: as §1, with “Mutagenesis was designed in Serial Cloner 2.6 (© Franck Perez [SerialBasics]) and carried out by GenScript (USA). All mutated residues are illustrated in Supplementary Fig. 1b. An untagged GPR139(WT) in pEGFP-N1 was also generated to ensure that the c-myc-tag had no influence on GPR139(WT) function.” left out
as §2, §3

As to `COc1cc(OC)cc(C(=O)NNC(=O)Nc2cccc3ccccc23)c1` [Compound 1a], the EC50 was 479 nM at GPR139 L87A2x64 (L87A mutant), 427 nM at GPR139 L87F2x64 (L87F mutant) and 251 nM on GPR139 H264A7x31 (H264A mutant). Further, the change of potency entry at GPR139 L87A2x64 (L87A mutant versus WT (reduced surface expression)) is reported as “equipotent”. Moreover, the Emax came to 75 ± 17% on GPR139 L87A2x64 (L87A, normalized to buffer (0%) and 8 µM 1a (100%)); 97 ± 14% on GPR139 L87F2x64 (L87F, normalized to buffer (0%) and 8 µM 1a (100%)); 148 ± 15% on GPR139 H264A7x31 (H264A, normalized to buffer (0%) and 8 µM 1a (100%)).

The values above are taken from PMC5430874 (Scientific Reports, 2017).
